Assay results from PubChem BioAssay (NCI).
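Test compounds were applied to cells in 96-well plates for 48 hours at 5 doses. TGI: concentration producing complete growth inhibition.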

Legend:
Assay in all cases: NCI-60 cell line screen, 48 h
UACC-257 melanoma = tested on: UACC-257 melanoma
786-0 renal = tested on: 786-0 renal
OVCAR-8 ovarian = tested on: OVCAR-8 ovarian
CCRF-CEM leukemia = tested on: CCRF-CEM leukemia
SF-268 CNS = tested on: SF-268 CNS
NCI/ADR-RES ovarian = tested on: NCI/ADR-RES ovarian
SF-539 CNS = tested on: SF-539 CNS
TK-10 renal = tested on: TK-10 renal
NCI-H522 lung = tested on: NCI-H522 lung
SF-295 CNS = tested on: SF-295 CNS

SMILES	TGI (UACC-257 melanoma)	TGI (786-0 renal)	TGI (OVCAR-8 ovarian)	TGI (CCRF-CEM leukemia)	TGI (SF-268 CNS)	TGI (NCI/ADR-RES ovarian)	TGI (SF-539 CNS)	TGI (TK-10 renal)	TGI (NCI-H522 lung)	TGI (SF-295 CNS)
CCCCCCCCCCCC1=C(O)C(=O)C(CC2=C(O)C(=O)C(CCCCCCCCCCC)=C(O)C2=O)=C(O)C1=O	> 100 µM	> 100 µM	> 100 µM	64.4 µM	> 100 µM	> 100 µM	> 100 µM	> 100 µM	> 100 µM	> 100 µM
Cc1ccc(S(=O)(=O)N/N=c2/sc3ccccc3n2C)cc1	> 100 µM	> 100 µM	> 100 µM	> 100 µM	> 100 µM	> 100 µM	> 100 µM	> 100 µM	> 100 µM	> 100 µM
O=C(/C=C\c1ccccc1)Oc1ccc(/C=C2\CCC/C(=C\c3ccc(OC(=O)/C=C\c4ccccc4)cc3)C2=O)cc1	> 100 µM	> 100 µM	> 100 µM	> 100 µM	> 100 µM	> 100 µM	> 100 µM	> 100 µM	> 100 µM	> 100 µM
Clc1[nH]nc2ccccc12	> 100 µM	> 100 µM	> 100 µM	> 100 µM	> 100 µM	> 100 µM	> 100 µM	> 100 µM	> 100 µM	> 100 µM
